Results from patent US8133991B2, “Allergen inactivating agent” (Kao Corporation, priority 2002, dated 2012).

Experiments:
Dermatophagoides farinae = assay: Quidel Allergen Screen: reactivity of immobilized allergen with allergy patient IgE; assay type: biochemical; conditions: 1% sample, 100 μL/stick, room temperature 2 hours; distilled water control = 0
Source text: (§1) Quidel Allergen Screen (manufactured by Xenith Biomed) which is a reagent for detecting antigen-specific IgE antibody by using enzyme-labeled anti-IgE antibody was used to measure the reactivity between the allergen (house dust, Dermatophagoides farinae, Dermatophagoides pteronyssinus, cat epidermis, Cryptomeria japonica, ragweed, and the like) immobilized on a dip stick and the IgE antibody from the allergy patient by the procedure as described below.
(§2) The allergen stick was placed in a wetting box with the pad side facing upward, and the stick was impregnated with the product of the present invention adjusted to 1% at an amount of 100 μL/stick and left at room temperature for 2 hours. Each pad was washed evenly for 30 seconds with physiological saline in a washing bottle, and 50 μL/stick of the serum collected from an allergy patient was added dropwise to the pad and the serum was evenly spread. The wetting box was covered with lid and allowed to stand for 18 hours at room temperature. After the completion of the reaction, the pad was washed evenly for 20 seconds by the physiological saline in a washing bottle.
(§3) About 1 mL of enzyme-labeled anti-IgE antibody was placed in a test tube, and allergen stick is placed in the test tube with the pad facing downward after washing the allergen stick and shaking off the excess water, and the reaction was allowed to take place at room temperature for 30 minutes. After the termination of the reaction, each pad was evenly washed with tap water for 2 minutes. At this occasion, disappearance of the red color on the pad was confirmed. About 1 mL of the substrate solution was poured into test tube, and allergen stick was placed in the test tube with the pad facing downward after washing the allergen stick and shaking off the excess water, and the reaction was allowed to take place at room temperature for 30 minutes. After the completion of the reaction, reaction was terminated by absorbing the water impregnated in the pad with a paper towel by gently patting the pad with the paper towel from the rear side of the pad. Next, intensity of the blue color developed was measured with an image analyzer, and decrease in the reactivity by the product of the present invention was calculated by the following equation by using the color intensity attained when the IgE from allergy patient was used with distilled water treatment for the control.
(§4) Allergen inactivation effect (%)=100−{(IgE reaction intensity when treated by the product of the present invention)−(reaction intensity of the negative control)}/{(IgE reaction intensity of the control treated by distilled water)−(reaction intensity of the negative control)×100

House dust 1 = assay: as above; assay type: biochemical; conditions: 1% sample, 100 μL/stick, room temperature 2 hours; distilled water control = 0
Source text: as §1, §2, §3, §4

[1] = system: Dermatophagoides pteronyssinus; assay: as above; assay type: biochemical; conditions: 1% sample, 100 μL/stick, room temperature 2 hours; distilled water control = 0
Source text: as §1, §2, §3, §4

Cat epithelium = assay: as above; assay type: biochemical; conditions: 1% sample, 100 μL/stick, room temperature 2 hours; distilled water control = 0
Source text: as §1, §2, §3, §4

Ceder = assay: as above; assay type: biochemical, Cryptomeria japonica; conditions: 1% sample, 100 μL/stick, room temperature 2 hours; distilled water control = 0
Source text: as §1
The allergen stick was placed in a wetting box with the pad side facing upward, and the stick was impregnated with the product of the present invention adjusted to 1% at an amount of 100 μL/stick and left at room temperature for 2 hours. […]
About 1 mL of enzyme-labeled anti-IgE antibody was placed in a test tube, and allergen stick is placed in the test tube with the pad facing downward after washing the allergen stick and shaking off the excess water, and the reaction was allowed to take place at room temperature for 30 minutes. […] Next, intensity of the blue color developed was measured with an image analyzer, and decrease in the reactivity by the product of the present invention was calculated by the following equation by using the color intensity attained when the IgE from allergy patient was used with distilled water treatment for the control. […]

[2] = target: T1, Dermatophagoides allergen Derf2 (Dermatophagoides farinae, UniProt Q00855); assay: Derf2 sandwich ELISA of mite extract after treatment with sample; assay type: biochemical; conditions: 1% sample solution mixed 1:1 with 0.5 mg/mL mite extract, room temperature 2 hours; distilled water control = 1; lower = more inactivation
T1 construct: purchased Torii Pharmaceutical Co., Ltd; host or cells: mite extract (natural allergen extract)
T1 sequence (Q00855 18-146): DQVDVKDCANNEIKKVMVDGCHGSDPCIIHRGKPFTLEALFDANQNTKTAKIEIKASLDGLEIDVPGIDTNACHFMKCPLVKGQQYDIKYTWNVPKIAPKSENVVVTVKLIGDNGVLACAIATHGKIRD
Protocol: (1) The polysaccharide derivative of the present invention was dissolved in distilled water to prepare 1% solution. Quantity of Dermatophagoides allergen was measured as a typical allergen in the indoor environment by sandwich ELISA using a mouse monoclonal antibody. More specifically, quantity of Dermatophagoides allergen Derf2 was measured by using Derf2 antibody and a labeled antibody manufactured by Asahi Brewery, Ltd.
The allergen inactivation effect is indicated in terms of the ratio in relation to the control wherein the sample was treated in the same way except for the use of distilled water, namely, by assuming the Derf2 quantity in the control as 1.
(2) Scratch extract “mite” (manufactured by Torii Pharmaceutical Co., Ltd.) was placed in a dialysis tube, and dialyzed overnight in 10% PBS (4° C.) to remove glycerol in the extract. […] Quantity of Derf2 in the reaction solution was determined by using anti-Derf2 monoclonal antibody (15E11) and HRP-labeled anti-Derf2 monoclonal antibody (13A4) manufactured by Asahi Brewery, Ltd. in accordance with the protocol attached with the product, and using Derf2 for the Derf2 antigen for depicting the calibration curve.
Quantity of the Derf2 treated with various samples was calculated in relation to the quantity of Derf2 treated with the distilled water, which was assumed to be 1.

What does the source list for `O=C(OC[C@H]1O[C@@H](OC(=O)c2cc(O)c(O)c(OC(=O)c3cc(O)c(O)c(O)c3)c2)[C@H](OC(=O)c2cc(O)c(O)c(OC(=O)c3cc(O)c(O)c(O)c3)c2)[C@@H](OC(=O)c2cc(O)c(O)c(OC(=O)c3cc(O)c(O)c(O)c3)c2)[C@@H]1OC(=O)c1cc(O)c(O)c(OC(=O)c2cc(O)c(O)c(O)c2)c1)c1cc(O)c(O)c(OC(=O)c2cc(O)c(O)c(O)c2)c1` [Tannic acid]?
Allergen inactivating effect (%) <Animal allergen> Dermatophagoides farinae (Dermatophagoides farinae): 62%; Allergen inactivating effect (%) <Animal allergen> House dust 1 (House dust 1): 83%; Allergen inactivating effect (%) <Animal allergen> Dermatophagoides pteronyssinus [1]: 70%; Allergen inactivating effect (%) <Animal allergen> Cat epithelium (Cat epithelium): 92%; Allergen inactivating effect (%) <Plant allergen> Ceder (Ceder): 78%; Quantity of Derf2 (Ratio to the control) [2]: 0.2
